For 23 molecules, GI50 and TGI results are on record in PubChem BioAssay (NCI).

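1) Cells in 96-well plates. 2) Compound, 48 h, 5 concentrations. 3) Linear interpolation between surrounding doses. 4) Unreached endpoint = highest concentration. GI50 marks 50% less growth. Definition used: TGI = concentration required for complete inhibition of growth.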

The first assay deals with BT-549 breast. Put plainly: NCI anticancer screen, dose series, 48 h.
As for `O=C(/C=C/c1cccc(O)c1)c1cccc(-n2cc(-c3ccc4ccccc4c3)[nH]c2=O)c1`, the GI50 is 1.89 µM and the TGI was determined as 5.14 µM.

`COc1ccc2[nH]c(-c3ccc(O)cc3)cc(=O)c2c1`: the TGI is greater than 100 µM.

The molecule `Cc1cc(C)n(C2=NS(=O)(=O)c3ccccc3N2C)n1` yielded a TGI greater than 100 µM.

Turning to `O=C1c2cccc3cccc(c23)C(=O)N1O`, the TGI is greater than 100 µM.

In the case of `CSc1ccc(N(C)c2nc(C)nc3c2CCC3)cc1`, the GI50 is less than 0.01 µM and the TGI was less than 0.01 µM.

For `O=C1/C(=C/c2ccc([N+](=O)[O-])cc2)COc2ccc(O)cc21`, the GI50 was 18.5 µM and the TGI turned out to be 50.4 µM.

As for `COC(=O)c1ccc2c(c1)C(=O)c1c-2n(CCCN=[N+]=[N-])c(=O)c2cc([N+](=O)[O-])ccc12`, the GI50 was 24.1 µM and the TGI worked out at 69.6 µM.

`C=C1C(=O)C23C(O)C1CC[C@H]2C12CCCC(C)(COC(C)=O)[C@H]1[C@H](O)[C@]3(O)OC2` (some centres undefined) returned a TGI of 2.86 µM.

Take `CN1c2ccccc2SC2C(c3ccccc3)=NOC21` (centres undefined): the TGI is 68.4 µM.

Take `COc1c(O)c(OC)c2oc(-c3ccc(O)cc3)c(OC)c(=O)c2c1O`: the TGI was greater than 100 µM.

For the molecule `O=[N+]([O-])c1ccc(-c2cc3c(Nc4ccc(Cl)c(C(F)(F)F)c4)ncnc3s2)cc1`, the GI50 is 2.91 µM and the TGI is greater than 100 µM.

Take `CCOC(=O)N1CCN(CCCCCOc2ccccc2C2CCCCC2)CC1`: the GI50 is 3 µM and the TGI was determined as 11.3 µM.

`O=C1c2ccccc2-c2c1c1ccccc1c(=O)n2CCNCCn1c2c(c3ccccc3c1=O)C(=O)c1ccccc1-2`: the GI50 was greater than 25 µM and the TGI was greater than 25 µM.

Turning to `C/C1=C\CC[C@@](C)(O)[C@@H]2C[C@H](CC/C(C)=C/CC1)C1(CC1)C(=O)O2`, the GI50 was 25.5 µM and the TGI was determined as 69.7 µM.

In the case of `COc1cc(C2c3cc4c(cc3[C@@H](Nc3ccc5c(c3)OCCO5)C3COC(=O)[C@H]23)OCO4)cc(OC)c1O` (some centres undefined), the TGI came to 16.4 µM.

The next assay concerns ACHN renal. Description: NCI anticancer screen, dose series, 48 h.
On to `O=C(/C=C/c1cccc(O)c1)c1cccc(-n2cc(-c3ccc4ccccc4c3)[nH]c2=O)c1`, for which the GI50 is 1.57 µM and the TGI is 3.08 µM.

Molecule `COc1ccc2[nH]c(-c3ccc(O)cc3)cc(=O)c2c1` showed a TGI greater than 100 µM.

`Cc1cc(C)n(C2=NS(=O)(=O)c3ccccc3N2C)n1` displayed a TGI greater than 100 µM.

`O=C1c2cccc3cccc(c23)C(=O)N1O` returned a TGI greater than 100 µM.

Consider `CSc1ccc(N(C)c2nc(C)nc3c2CCC3)cc1`, for which the GI50 was less than 0.01 µM and the TGI is greater than 100 µM.

`O=C1/C(=C/c2ccc([N+](=O)[O-])cc2)COc2ccc(O)cc21`: the GI50 is 2.02 µM and the TGI came to 4.12 µM.

`CCOC(OC1=C(C#N)CCCC1)C(CC)[Se]c1ccccc1` (centres undefined) showed a TGI of 95.5 µM.

In the case of `COC(=O)c1ccc2c(c1)C(=O)c1c-2n(CCCN=[N+]=[N-])c(=O)c2cc([N+](=O)[O-])ccc12`, the GI50 was 13 µM and the TGI came to 28.7 µM.

As for `C=C1C(=O)C23C(O)C1CC[C@H]2C12CCCC(C)(COC(C)=O)[C@H]1[C@H](O)[C@]3(O)OC2` (some centres undefined), the TGI was 3.32 µM.

The molecule `O=S1CSSC1` gave a TGI of 94.9 µM.

Molecule `CN(C)C(=S)Nc1nnc(Nc2ccccc2)s1` came in with a TGI greater than 100 µM.

`CN1c2ccccc2SC2C(c3ccccc3)=NOC21` (centres undefined): the TGI is greater than 100 µM.

On to `COc1c(O)c(OC)c2oc(-c3ccc(O)cc3)c(OC)c(=O)c2c1O`, for which the TGI is greater than 100 µM.

As to `O=[N+]([O-])c1ccc(-c2cc3c(Nc4ccc(Cl)c(C(F)(F)F)c4)ncnc3s2)cc1`, the GI50 is 2.42 µM and the TGI amounted to 7.6 µM.

On to `Cc1ccccc1/C=C/C(=O)c1ccccc1`, for which the TGI worked out at 32.8 µM.

In turn, `CC1(C)CC(=O)C(CC2C(=O)c3ccccc3C2=O)C(=O)C1` came in with a TGI greater than 100 µM.

On to `CCOC(=O)N1CCN(CCCCCOc2ccccc2C2CCCCC2)CC1`, for which the GI50 is 10.6 µM and the TGI worked out at 23.8 µM.

For `Cc1ccc(C)c(N2C(=O)C(=O)C(c3nc4ccccc4s3)C(=Nc3cccc4c(=O)[nH][nH]c(=O)c34)C2=O)c1` (centres undefined), the TGI is greater than 100 µM.

As to `O=C1c2ccccc2-c2c1c1ccccc1c(=O)n2CCNCCn1c2c(c3ccccc3c1=O)C(=O)c1ccccc1-2`, the GI50 is greater than 25 µM and the TGI was greater than 25 µM.

In the case of `CCCCCCCCCCCCCC[n+]1cccc(C(N)=O)c1`, the GI50 was 3.46 µM and the TGI was 17.9 µM.

The molecule `Cc1cccc(C)c1N1C(=O)C(=O)C(c2nc3ccccc3s2)C(=Nc2cccc3c(=O)[nH][nH]c(=O)c23)C1=O` (centres undefined) returned a TGI greater than 100 µM.

Take `C/C1=C\CC[C@@](C)(O)[C@@H]2C[C@H](CC/C(C)=C/CC1)C1(CC1)C(=O)O2`: the GI50 is 34.4 µM and the TGI was greater than 100 µM.

In another assay the test system is SR leukemia. Description: NCI anticancer screen, dose series, 48 h.
Consider `CSc1ccc(N(C)c2nc(C)nc3c2CCC3)cc1`, for which the GI50 is less than 0.01 µM and the TGI was 11.6 µM.

Take `CCOC(OC1=C(C#N)CCCC1)C(CC)[Se]c1ccccc1` (centres undefined): the TGI was determined as 31 µM.

`O=S1CSSC1` displayed a TGI of 47.2 µM.

For the molecule `CN(C)C(=S)Nc1nnc(Nc2ccccc2)s1`, the TGI is greater than 100 µM.

As for `CN1c2ccccc2SC2C(c3ccccc3)=NOC21` (centres undefined), the TGI was greater than 100 µM.

For the molecule `COc1c(O)c(OC)c2oc(-c3ccc(O)cc3)c(OC)c(=O)c2c1O`, the TGI is greater than 100 µM.

For `Cc1ccccc1/C=C/C(=O)c1ccccc1`, the TGI was greater than 100 µM.

In the case of `CC1(C)CC(=O)C(CC2C(=O)c3ccccc3C2=O)C(=O)C1`, the TGI is greater than 100 µM.

For `Cc1ccc(C)c(N2C(=O)C(=O)C(c3nc4ccccc4s3)C(=Nc3cccc4c(=O)[nH][nH]c(=O)c34)C2=O)c1` (centres undefined), the TGI was greater than 100 µM.

In the case of `CCCCCCCCCCCCCC[n+]1cccc(C(N)=O)c1`, the GI50 is 1.45 µM and the TGI was 3.94 µM.

In turn, `Cc1cccc(C)c1N1C(=O)C(=O)C(c2nc3ccccc3s2)C(=Nc2cccc3c(=O)[nH][nH]c(=O)c23)C1=O` (centres undefined) came in with a TGI greater than 100 µM.

In the case of `C/C1=C\CC[C@@](C)(O)[C@@H]2C[C@H](CC/C(C)=C/CC1)C1(CC1)C(=O)O2`, the GI50 was 28 µM and the TGI came out at 76.9 µM.
